{"source": "ChEMBL document CHEMBL1201862", "about": "“PubChem BioAssay data set” (2004)", "assay_type_in_all_cases": "functional", "key": {"[1]": {"molecular_target": "T1, Protein disulfide-isomerase (Homo sapiens, UniProt P07237)", "T1 sequence (P07237 whole entry)": "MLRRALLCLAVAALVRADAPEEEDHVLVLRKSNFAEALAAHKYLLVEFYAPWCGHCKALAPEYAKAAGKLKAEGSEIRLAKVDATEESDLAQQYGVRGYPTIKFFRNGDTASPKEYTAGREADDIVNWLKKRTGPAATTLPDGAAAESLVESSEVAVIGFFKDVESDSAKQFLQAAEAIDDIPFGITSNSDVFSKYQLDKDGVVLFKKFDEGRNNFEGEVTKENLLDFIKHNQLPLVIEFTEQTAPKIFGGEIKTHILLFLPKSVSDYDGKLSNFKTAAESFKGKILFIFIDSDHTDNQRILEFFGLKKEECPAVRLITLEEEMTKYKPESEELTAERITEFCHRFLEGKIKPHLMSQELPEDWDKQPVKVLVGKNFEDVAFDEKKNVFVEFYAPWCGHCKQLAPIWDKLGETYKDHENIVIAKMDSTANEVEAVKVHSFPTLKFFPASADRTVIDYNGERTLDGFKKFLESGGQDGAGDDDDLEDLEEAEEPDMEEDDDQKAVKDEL", "assay": "inhibition of PDI-driven insulin aggregation – biochemical, turbidity, absorbance, cherry-picked samples, dose response (AID 602350)"}, "[2]": {"molecular_target": "T1, Protein disulfide-isomerase", "assay": "inhibition of PDI-mediated insulin reduction – biochemical, turbidity, absorbance, cherry-picked samples, set 2, dose response (AID 624274)"}, "[3]": {"molecular_target": "T2, High affinity choline transporter 1 (Homo sapiens, UniProt Q9GZV3)", "T2 sequence (Q9GZV3 whole entry)": "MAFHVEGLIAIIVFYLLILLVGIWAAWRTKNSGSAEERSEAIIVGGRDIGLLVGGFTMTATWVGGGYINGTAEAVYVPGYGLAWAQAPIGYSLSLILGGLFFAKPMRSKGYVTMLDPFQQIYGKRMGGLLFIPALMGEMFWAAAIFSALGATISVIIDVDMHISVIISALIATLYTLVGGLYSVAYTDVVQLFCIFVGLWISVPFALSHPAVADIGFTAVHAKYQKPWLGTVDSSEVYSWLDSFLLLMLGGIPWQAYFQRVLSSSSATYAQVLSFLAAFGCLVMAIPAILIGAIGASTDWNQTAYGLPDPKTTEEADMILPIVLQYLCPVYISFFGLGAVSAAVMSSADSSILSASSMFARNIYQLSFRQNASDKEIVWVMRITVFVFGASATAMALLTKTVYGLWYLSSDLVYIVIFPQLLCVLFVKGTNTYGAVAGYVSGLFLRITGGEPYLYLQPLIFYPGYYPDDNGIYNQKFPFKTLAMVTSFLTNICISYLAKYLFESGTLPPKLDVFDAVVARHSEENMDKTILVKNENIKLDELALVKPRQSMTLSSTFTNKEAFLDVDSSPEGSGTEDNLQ", "assay": "human choline transporter blockers, potency – cell-based, 10-point CRC, membrane potential dye, dose response (AID 588401);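 further: membrane potential dye fluorescence of choline-evoked depolarization via CHT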"}, "[4]": {"molecular_target": "T2, High affinity choline transporter 1", "assay": "human choline transporter blockers, potency – cell-based, 5-point CRC, membrane potential dye, dose response (AID 504840)"}, "[5]": {"assay": "THP-1 cell cytotoxicity, cytotoxicity control, set 5 (AID 588443)"}, "[6]": {"molecular_target": "Multidrug resistance protein CDR2 (Candida albicans (strain SC5314 / ATCC MYA-2876) (Yeast), UniProt P78595)", "sequence (P78595 whole entry)": "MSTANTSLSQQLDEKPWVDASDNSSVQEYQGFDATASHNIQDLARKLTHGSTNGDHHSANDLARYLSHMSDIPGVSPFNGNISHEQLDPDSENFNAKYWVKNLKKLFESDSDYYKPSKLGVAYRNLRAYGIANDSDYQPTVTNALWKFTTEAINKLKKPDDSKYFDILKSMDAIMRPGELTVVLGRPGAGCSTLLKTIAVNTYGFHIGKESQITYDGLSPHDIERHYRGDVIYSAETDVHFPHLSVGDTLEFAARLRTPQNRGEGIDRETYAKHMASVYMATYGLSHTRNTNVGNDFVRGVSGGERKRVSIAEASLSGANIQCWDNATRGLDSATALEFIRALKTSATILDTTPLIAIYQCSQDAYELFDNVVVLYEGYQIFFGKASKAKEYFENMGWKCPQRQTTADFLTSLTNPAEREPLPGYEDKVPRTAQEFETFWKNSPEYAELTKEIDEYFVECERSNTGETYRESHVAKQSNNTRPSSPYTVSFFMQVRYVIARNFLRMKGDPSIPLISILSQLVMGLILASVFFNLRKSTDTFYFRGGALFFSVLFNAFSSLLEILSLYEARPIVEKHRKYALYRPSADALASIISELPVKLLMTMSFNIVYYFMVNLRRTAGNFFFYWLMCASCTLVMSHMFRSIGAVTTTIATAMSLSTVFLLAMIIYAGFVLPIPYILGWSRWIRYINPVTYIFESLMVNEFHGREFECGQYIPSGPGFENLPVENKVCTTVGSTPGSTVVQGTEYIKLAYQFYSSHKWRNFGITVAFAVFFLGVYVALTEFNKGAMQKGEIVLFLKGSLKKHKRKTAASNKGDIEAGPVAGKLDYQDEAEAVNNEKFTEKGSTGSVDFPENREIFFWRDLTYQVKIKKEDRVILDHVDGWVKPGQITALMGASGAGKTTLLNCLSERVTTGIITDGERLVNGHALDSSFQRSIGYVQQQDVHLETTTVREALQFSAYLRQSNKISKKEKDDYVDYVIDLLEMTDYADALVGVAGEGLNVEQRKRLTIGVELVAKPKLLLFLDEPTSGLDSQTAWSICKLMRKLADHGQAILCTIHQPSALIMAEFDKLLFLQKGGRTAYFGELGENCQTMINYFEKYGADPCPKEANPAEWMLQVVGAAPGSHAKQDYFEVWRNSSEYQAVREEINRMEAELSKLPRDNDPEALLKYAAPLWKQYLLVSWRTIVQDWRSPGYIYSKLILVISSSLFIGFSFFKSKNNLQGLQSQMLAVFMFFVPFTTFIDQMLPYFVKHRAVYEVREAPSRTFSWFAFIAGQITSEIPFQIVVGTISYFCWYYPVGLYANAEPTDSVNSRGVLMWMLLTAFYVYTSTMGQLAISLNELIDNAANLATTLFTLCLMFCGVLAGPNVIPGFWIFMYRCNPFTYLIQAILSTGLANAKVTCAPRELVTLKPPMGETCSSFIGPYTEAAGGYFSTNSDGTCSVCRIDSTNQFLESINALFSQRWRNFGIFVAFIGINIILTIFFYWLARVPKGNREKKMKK", "assay": "inhibition of Nile Red efflux via Candida CDR2 – S. cerevisiae AD1-8u, singleplex, Cherry Pick1 hits, dose response (AID 588604)"}, "[7]": {"molecular_target": "Sphingosine 1-phosphate receptor 2 (Homo sapiens, UniProt O95136)", "sequence (O95136 whole entry)": "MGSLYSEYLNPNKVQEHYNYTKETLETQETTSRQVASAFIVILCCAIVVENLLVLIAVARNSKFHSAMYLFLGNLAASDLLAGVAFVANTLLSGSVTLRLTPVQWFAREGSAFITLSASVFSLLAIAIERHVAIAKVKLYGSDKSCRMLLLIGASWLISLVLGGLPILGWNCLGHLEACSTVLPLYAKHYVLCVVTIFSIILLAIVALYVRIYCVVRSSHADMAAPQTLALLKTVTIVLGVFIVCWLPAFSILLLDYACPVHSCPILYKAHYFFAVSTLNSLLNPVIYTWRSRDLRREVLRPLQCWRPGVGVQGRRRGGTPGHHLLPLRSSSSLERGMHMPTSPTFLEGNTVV", "assay": "activation of human S1P2 receptor – cell-based, fluorescence, set 2, counter-screen for S1P4 agonist project, late-stage follow-up (AID 504873)"}, "[8]": {"molecular_target": "Sphingosine 1-phosphate receptor 3 (Homo sapiens, UniProt Q99500)", "sequence (Q99500 whole entry)": "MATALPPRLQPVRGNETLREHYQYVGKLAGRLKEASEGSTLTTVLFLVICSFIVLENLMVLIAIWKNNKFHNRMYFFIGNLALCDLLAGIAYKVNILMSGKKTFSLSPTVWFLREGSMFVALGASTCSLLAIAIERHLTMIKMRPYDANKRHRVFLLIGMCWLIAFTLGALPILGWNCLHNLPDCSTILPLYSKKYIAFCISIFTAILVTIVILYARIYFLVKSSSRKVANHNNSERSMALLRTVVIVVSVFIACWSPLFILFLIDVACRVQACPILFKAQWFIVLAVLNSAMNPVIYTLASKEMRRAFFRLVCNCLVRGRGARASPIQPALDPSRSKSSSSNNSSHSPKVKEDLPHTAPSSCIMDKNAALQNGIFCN", "assay": "Late-stage fluorescence-based dose-response cell-based counterscreen assay to identify agonists of the Sphingosine 1-Phosphate Receptor 4 (S1P4): Sphingosine 1-Phosphate Receptor 3 (S1P3) agonist assay Set 2."}, "[9]": {"molecular_target": "Sphingosine 1-phosphate receptor 5 (Homo sapiens, UniProt Q9H228)", "sequence (Q9H228 whole entry)": "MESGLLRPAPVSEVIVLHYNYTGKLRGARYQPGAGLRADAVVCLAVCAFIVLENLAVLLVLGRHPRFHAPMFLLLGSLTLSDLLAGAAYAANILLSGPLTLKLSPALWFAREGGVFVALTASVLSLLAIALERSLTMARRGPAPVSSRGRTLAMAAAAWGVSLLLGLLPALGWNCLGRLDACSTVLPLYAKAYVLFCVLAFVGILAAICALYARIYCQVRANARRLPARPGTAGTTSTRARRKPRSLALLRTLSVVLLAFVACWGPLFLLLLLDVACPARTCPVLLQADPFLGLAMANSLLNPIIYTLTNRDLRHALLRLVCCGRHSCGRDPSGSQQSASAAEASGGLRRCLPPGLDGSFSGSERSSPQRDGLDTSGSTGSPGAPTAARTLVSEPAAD", "assay": "activation of human S1P5 receptor – cell-based, fluorescence, set 2, counter-screen for S1P4 agonist project, late-stage follow-up (AID 504867)"}, "[10]": {"molecular_target": "Sphingosine 1-phosphate receptor 1 (Homo sapiens, UniProt P21453)", "sequence (P21453 whole entry)": "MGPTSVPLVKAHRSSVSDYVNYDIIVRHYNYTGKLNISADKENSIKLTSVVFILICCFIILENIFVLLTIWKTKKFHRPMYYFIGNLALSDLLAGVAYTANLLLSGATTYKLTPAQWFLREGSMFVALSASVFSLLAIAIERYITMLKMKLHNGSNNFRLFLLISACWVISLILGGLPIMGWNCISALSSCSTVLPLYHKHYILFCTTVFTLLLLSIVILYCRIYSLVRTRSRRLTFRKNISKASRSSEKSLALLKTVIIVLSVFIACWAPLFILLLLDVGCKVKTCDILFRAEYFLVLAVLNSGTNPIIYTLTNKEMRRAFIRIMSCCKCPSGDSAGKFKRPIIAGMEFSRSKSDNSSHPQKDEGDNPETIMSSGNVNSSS", "assay": "Late-stage fluorescence-based dose-response cell-based counterscreen assay to identify agonists of the Sphingosine 1-Phosphate Receptor 4 (S1P4): Sphingosine 1-Phosphate Receptor 1 (S1P1) agonist assay Set 2."}, "[11]": {"molecular_target": "Melanin-concentrating hormone receptor 1 (Homo sapiens, UniProt Q99705)", "sequence (Q99705 whole entry)": "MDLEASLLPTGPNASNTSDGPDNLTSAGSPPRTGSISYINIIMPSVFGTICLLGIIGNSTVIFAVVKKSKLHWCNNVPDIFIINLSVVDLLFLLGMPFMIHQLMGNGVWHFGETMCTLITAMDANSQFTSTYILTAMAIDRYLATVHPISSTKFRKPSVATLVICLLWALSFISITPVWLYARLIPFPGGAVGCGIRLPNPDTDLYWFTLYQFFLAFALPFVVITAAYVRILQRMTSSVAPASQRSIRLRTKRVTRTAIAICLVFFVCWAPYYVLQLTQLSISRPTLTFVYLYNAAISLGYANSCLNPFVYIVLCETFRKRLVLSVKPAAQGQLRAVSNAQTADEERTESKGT", "assay": "Late-stage fluorescence-based counterscreen for antagonists of the G-protein coupled receptor 7 (GPR7): cell-based dose response assay to identify antagonists of the melanin-concentrating hormone receptor 1 (MCHR1) Set 6."}, "[12]": {"molecular_target": "T3, Neuropeptides B/W receptor type 1 (Homo sapiens, UniProt P48145)", "T3 sequence (P48145 whole entry)": "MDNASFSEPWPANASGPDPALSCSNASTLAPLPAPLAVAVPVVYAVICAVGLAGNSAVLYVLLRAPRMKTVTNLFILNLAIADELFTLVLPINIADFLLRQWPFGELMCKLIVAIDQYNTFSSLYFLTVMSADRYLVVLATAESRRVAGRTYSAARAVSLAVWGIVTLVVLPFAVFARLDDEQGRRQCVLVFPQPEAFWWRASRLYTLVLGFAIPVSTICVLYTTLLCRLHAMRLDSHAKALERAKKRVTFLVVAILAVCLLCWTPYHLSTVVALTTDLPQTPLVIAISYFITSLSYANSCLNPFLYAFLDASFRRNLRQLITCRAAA", "assay": "human NPBW1 receptor blockade, IC50 – cell-based, fluorescence, dose response, set 6, late-stage follow-up (AID 588583)"}, "[13]": {"molecular_target": "T4, Apoptotic protease-activating factor 1 (Homo sapiens, UniProt O14727)", "T4 sequence (O14727 whole entry)": "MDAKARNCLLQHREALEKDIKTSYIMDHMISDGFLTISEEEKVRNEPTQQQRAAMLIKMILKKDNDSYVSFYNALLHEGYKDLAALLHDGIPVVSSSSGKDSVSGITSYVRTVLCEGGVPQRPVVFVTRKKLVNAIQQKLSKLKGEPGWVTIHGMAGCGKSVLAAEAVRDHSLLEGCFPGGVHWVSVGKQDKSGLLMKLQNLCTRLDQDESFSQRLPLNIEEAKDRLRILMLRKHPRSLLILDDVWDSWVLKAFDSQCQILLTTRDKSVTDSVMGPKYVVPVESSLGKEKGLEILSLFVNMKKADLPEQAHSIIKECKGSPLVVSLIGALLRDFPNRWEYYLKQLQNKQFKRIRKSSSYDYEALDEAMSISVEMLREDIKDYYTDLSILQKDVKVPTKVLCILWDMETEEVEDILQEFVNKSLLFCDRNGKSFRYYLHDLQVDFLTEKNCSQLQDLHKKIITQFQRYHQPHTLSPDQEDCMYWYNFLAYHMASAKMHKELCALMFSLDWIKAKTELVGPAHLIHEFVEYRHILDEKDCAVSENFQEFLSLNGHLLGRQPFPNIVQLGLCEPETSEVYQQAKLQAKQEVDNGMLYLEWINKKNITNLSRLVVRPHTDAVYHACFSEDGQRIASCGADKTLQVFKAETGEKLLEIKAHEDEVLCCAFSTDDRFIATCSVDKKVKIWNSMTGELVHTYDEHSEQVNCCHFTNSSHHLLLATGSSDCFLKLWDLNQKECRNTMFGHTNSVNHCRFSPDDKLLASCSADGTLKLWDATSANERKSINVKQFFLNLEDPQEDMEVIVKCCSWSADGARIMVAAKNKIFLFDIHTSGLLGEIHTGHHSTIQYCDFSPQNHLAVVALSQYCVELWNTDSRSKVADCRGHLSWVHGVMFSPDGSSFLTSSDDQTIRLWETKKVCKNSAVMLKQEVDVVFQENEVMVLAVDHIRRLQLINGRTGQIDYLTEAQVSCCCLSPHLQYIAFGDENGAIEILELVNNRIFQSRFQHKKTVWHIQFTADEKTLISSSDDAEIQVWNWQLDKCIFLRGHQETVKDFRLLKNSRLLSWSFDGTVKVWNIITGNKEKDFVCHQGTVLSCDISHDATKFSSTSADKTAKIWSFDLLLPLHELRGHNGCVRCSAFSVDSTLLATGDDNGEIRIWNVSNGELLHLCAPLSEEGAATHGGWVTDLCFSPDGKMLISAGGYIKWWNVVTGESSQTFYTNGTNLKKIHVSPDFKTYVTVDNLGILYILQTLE", "assay": "SAR analysis of small molecule inhibitors of Apaf-1 in a Fluorescent assay.", "settings": "read-out: IC50_Mean"}}, "note": "Calls of active or inactive are those of the source. Unless noted, the calls are words filed in the database; no cut-off is given here.", "data": [{"smiles": "CN(C)C1(c2nnnn2CCOC(=O)Nc2ccc(Cl)cc2)CCCCC1", "values": [{"measurement": "AC50", "setting": "[1]", "value": "< 0.009 µM (active)"}, {"measurement": "AC50", "setting": "[2]", "value": "0.009 µM (active)"}]}, {"smiles": "CC(C)CC(=O)N=c1nc(S)ss1", "values": [{"measurement": "IC50", "setting": "[3]", "value": "3.98 µM (active)"}, {"measurement": "IC50", "setting": "[4]", "value": "3.02 µM (active)"}]}, {"smiles": "CC(C)OC(=O)CSc1ncnc2c1cnn2-c1ccccc1", "values": [{"measurement": "CC50", "setting": "[5]", "value": "> 100 µM (active)"}]}, {"smiles": "COc1cccc(-c2sc3ccc(OC)cc3c2-c2ccc(OCCN3CCCC3)cc2)c1", "values": [{"measurement": "EC50", "setting": "[6]", "value": "10.2 µM (active)"}]}, {"smiles": "CC/N=C1/S/C(=C/c2cc(C)n(-c3ccc(F)cc3F)c2C)C(=O)N1CC", "values": [{"measurement": "EC50", "setting": "[7]", "value": "> 25 µM (inactive)"}, {"measurement": "EC50", "setting": "[8]", "value": "> 25 µM (inactive)"}, {"measurement": "EC50", "setting": "[9]", "value": "6.18 µM (active)"}, {"measurement": "EC50", "setting": "[10]", "value": "0.816 µM (active)"}]}, {"smiles": "N#CC(c1ccc(F)cc1)c1c(Cl)cnn(Cc2cccc3ccccc23)c1=O", "note": "(stereo not drawn)", "values": [{"measurement": "IC50", "setting": "[11]", "value": "0.154 µM (active)"}, {"measurement": "IC50", "setting": "[12]", "value": "0.154 µM (active)"}]}, {"smiles": "O=C(Nc1ccc2c(c1)C(=O)NC2=O)c1nc2ccccc2s1", "values": [{"measurement": "IC50", "setting": "[13]", "value": "> 100 µM (inactive)"}]}]}
